Test results: patent US12006328B2, “Thieno[2,3-d]pyrimidin-4-one derivatives as NMDAR modulators and uses related thereto” (Emory University, priority 2014, dated 2024)

Columns and labels:
[1] = biological target: GluN2C-containing NMDA receptors (Homo sapiens, UniProt Q05586+Q14957); test: Two-electrode voltage-clamp recordings from Xenopus laevis oocytes, GluN2C; format: cell-based; conditions: Table 6; read-out: IC50 (μM) Glu N2C
Experimental: (§1) Xenopus laevis oocytes were injected with cRNA encoding the NMDA receptor subunits. Two to seven days after injection, two-electrode voltage-clamp recordings were performed. Extracellular solutions were made from a solutions containing (in mM) 90 NaCl, 3 KCl, 10 HEPES, 0.5 BaCl2, 0.01 EDTA (pH 7.4 with NaOH). Voltage and current electrodes were filled with 0.3 M and 3.0 M KCl, respectively.
(§2) Potency was determined by adding increasing concentrations of test compound to saturating concentrations of glutamate (100 μM) and glycine (30 μM), and the response amplitude measured. The response in the presence of each concentration of test compound plus agonists was expressed as a percent of the response in the absence of test compound.

[2] = biological target: GluN2B-containing NMDA receptors (Homo sapiens, UniProt Q13224); test: Two-electrode voltage-clamp recordings from Xenopus laevis oocytes, GluN2B; format: cell-based; conditions: for % response at 100 μM, Glu N2B: Table 6, printed in the IC50 column, 100 μM compound; for EC50 / maximal potentiation Glu N2B: Table 1; for EC50: glutamate 100 μM, glycine 30 μM, Hill fit, read-out: EC50 Glu N2B; for maximal potentiation Glu N2B: in brackets after EC50; for maximal potentiation Glu N2B / I10 μM/ICONTROL (mean ± SEM, %) Glu N2B: percent of response without compound; for I10 μM/ICONTROL (mean ± SEM, %) Glu N2B: 10 μM test compound with glutamate 100 μM and glycine 30 μM, Tables 1-5
GluN2B-containing NMDA receptors, sequence (Q13224 27-1484, other chains not shown): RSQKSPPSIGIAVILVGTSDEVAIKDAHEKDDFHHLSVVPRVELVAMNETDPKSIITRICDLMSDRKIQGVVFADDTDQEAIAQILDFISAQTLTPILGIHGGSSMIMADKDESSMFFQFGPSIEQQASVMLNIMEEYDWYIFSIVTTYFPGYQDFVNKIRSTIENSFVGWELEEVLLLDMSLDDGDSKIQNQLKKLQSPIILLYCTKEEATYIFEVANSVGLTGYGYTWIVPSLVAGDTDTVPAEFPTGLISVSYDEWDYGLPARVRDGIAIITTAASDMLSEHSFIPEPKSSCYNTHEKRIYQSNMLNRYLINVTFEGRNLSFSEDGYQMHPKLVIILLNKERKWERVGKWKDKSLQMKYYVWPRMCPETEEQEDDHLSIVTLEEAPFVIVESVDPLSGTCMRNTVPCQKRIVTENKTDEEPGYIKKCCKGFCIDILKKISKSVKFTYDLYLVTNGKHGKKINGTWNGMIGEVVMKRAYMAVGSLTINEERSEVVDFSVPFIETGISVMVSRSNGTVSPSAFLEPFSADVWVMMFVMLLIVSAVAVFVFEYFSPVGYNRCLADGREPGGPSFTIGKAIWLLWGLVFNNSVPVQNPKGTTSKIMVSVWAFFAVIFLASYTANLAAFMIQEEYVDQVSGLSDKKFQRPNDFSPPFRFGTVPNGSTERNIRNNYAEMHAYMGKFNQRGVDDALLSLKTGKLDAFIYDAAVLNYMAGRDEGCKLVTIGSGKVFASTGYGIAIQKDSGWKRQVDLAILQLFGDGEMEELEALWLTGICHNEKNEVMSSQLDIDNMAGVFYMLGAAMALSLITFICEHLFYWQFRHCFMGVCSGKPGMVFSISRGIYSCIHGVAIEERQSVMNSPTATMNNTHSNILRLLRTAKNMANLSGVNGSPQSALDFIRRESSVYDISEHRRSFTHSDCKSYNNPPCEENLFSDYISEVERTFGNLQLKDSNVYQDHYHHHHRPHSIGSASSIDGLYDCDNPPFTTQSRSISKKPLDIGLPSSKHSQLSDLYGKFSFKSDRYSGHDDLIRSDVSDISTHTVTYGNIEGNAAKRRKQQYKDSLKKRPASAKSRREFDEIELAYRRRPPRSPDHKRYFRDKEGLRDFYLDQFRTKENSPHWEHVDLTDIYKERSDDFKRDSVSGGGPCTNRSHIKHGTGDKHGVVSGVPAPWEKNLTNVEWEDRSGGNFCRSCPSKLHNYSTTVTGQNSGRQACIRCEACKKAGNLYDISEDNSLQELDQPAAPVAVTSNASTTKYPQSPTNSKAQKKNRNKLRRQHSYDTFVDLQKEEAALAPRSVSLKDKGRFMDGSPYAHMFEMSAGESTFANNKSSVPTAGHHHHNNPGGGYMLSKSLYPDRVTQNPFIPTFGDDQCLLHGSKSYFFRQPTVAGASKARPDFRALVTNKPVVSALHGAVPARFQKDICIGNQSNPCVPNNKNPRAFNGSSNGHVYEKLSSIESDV
Experimental: as §1, §2

[3] = biological target: GluN2D-containing NMDA receptors (Homo sapiens, UniProt O15399+Q05586); test: Two-electrode voltage-clamp recordings from Xenopus laevis oocytes, GluN2D; format: cell-based; conditions: Table 6; read-out: IC50 (μM) Glu N2D
GluN2D-containing NMDA receptors (Homo sapiens, UniProt O15399+Q05586), sequence (O15399 28-1336, other chains not shown): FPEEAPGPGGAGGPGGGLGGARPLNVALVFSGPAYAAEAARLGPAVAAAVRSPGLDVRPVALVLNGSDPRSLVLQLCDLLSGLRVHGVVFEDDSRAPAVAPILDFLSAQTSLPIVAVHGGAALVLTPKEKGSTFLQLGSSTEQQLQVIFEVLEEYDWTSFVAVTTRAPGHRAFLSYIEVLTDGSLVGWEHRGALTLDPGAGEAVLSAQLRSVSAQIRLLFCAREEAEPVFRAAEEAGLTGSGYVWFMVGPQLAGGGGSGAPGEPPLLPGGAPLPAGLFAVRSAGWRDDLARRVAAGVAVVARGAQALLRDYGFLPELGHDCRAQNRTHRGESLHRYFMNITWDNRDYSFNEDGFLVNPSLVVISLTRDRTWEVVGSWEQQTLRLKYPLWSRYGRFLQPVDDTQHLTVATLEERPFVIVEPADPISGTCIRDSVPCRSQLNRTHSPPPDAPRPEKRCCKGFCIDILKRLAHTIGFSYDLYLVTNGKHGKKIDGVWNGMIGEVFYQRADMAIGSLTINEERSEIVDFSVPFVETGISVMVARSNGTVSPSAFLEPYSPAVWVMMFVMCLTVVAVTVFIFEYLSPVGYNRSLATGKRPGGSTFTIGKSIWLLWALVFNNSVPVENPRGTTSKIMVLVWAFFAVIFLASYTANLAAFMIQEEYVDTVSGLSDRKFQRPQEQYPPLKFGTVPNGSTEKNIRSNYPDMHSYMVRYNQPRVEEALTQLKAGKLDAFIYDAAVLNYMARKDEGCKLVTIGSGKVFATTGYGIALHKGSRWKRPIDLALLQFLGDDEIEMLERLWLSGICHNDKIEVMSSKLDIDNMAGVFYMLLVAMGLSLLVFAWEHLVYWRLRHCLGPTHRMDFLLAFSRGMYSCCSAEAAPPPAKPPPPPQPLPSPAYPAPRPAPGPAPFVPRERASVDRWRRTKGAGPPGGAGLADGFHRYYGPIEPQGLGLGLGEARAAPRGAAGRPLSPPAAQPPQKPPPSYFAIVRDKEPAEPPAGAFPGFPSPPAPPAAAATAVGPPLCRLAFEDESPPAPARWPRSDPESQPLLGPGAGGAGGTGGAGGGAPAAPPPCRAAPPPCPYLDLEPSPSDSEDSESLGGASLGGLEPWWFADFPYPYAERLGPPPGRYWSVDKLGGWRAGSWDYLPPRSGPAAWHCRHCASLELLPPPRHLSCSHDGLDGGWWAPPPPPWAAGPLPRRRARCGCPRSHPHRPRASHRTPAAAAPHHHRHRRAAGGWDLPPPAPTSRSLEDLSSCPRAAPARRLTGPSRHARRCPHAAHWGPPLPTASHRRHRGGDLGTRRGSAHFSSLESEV
Experimental: as §1, §2

[4] = biological target: GluN2C-containing NMDA receptors (Homo sapiens, UniProt Q14957); test: Two-electrode voltage-clamp recordings from Xenopus laevis oocytes, GluN2C; format: cell-based; conditions: for EC50 / maximal potentiation Glu N2C: Table 1; for EC50: glutamate 100 μM, glycine 30 μM, Hill fit, read-out: EC50 Glu N2C; for maximal potentiation Glu N2C: in brackets after EC50; for maximal potentiation Glu N2C / I10 μM/ICONTROL (mean ± SEM, %) Glu N2C: percent of response without compound; for I10 μM/ICONTROL (mean ± SEM, %) Glu N2C: 10 μM test compound with glutamate 100 μM and glycine 30 μM, Tables 1-5
Experimental: as §1, §2

[5] = biological target: GluN2D-containing NMDA receptors (Homo sapiens, UniProt O15399); test: Two-electrode voltage-clamp recordings from Xenopus laevis oocytes, GluN2D; format: cell-based; conditions: for EC50 / maximal potentiation Glu N2D: Table 1; for EC50: glutamate 100 μM, glycine 30 μM, Hill fit, read-out: EC50 Glu N2D; for maximal potentiation Glu N2D: in brackets after EC50; for maximal potentiation Glu N2D / I10 μM/ICONTROL (mean ± SEM, %) Glu N2D: percent of response without compound; for I10 μM/ICONTROL (mean ± SEM, %) Glu N2D: 10 μM test compound with glutamate 100 μM and glycine 30 μM, Tables 1-5
GluN2D-containing NMDA receptors (Homo sapiens, UniProt O15399), sequence (O15399 28-1336, other chains not shown): as above
Experimental: as §1, §2

[6] = biological target: T1, GluN1/GluN2B expressing HEK293 cells (Homo sapiens, UniProt Q13224); test: Rapid solution exchange patch clamp in transfected HEK293 cells; format: cell-based
T1 construct: expressed in transfected cells; host or cells: HEK293
T1 sequence (Q13224 27-1484, other chains not shown): as the sequence (Q13224 27-1484, other chains not shown) above
Experimental: HEK293 cells were transfected used the CaPO4 method. Cells were patched 1-3 days later and lifted into the flow from a theta tube perfusion. […] NMDA receptor currents were activated using 100 μM glutamate and 30 μM glycine.

hippocampal CA1 neurons = test: Hippocampal slice whole cell recordings; format: cell-based, mice
Excerpt: Coronal hippocampal brain slices were made from mice (p7-14) using a vibrotome. During slice cutting and recovery, the slices were bathed in an artificial cerebral spinal fluid (slicing aCSF—containing, in mM: 75 NaCl, 2.5 KCl, 1.25 NaH2PO4, 25 NaHCO3, 5 MgCl2 or MgSO4, 0.5 CaCl2, 20 Glucose, 70 Sucrose). Whole cell recordings were made using a different aCSF (recording aCSF—containing, in mM: 130 NaCl, 2.5 KCl, 1.25 NaH2PO4, 25 NaHCO3, 0.1 MgCl2 or MgSO4, 2.5 CaCl2, 20 Glucose), and using a CsGlu internal solution containing, following (in mM): 110 d-gluconic acid, 110 CsOH, 30 CsCl, 5 HEPES, 4 NaCl, 0.5 CaCl2, 2 MgCl2, 5 BAPTA, 2 Na2ATP, and 0.3 NaGTP (pH 7.35).

[7] = 1622-35 10 μM versus control, N 4

Compound	EC50 [4] [µM]	maximal potentiation Glu N2C [4] [%]	EC50 [2] [µM]	maximal potentiation Glu N2B [2] [%]	EC50 [5] [µM]	maximal potentiation Glu N2D [5] [%]	I10 μM/ICONTROL (mean ± SEM, %) Glu N2C [4] [%]	I10 μM/ICONTROL (mean ± SEM, %) Glu N2B [2] [%]	I10 μM/ICONTROL (mean ± SEM, %) Glu N2D [5] [%]	further results
COCCN1Cc2c(sc(C)c2C)N(C(=O)c2ccc(OC)cc2)C1										IC50 [1]: 46 µM; % response at 100 μM, Glu N2B [2]: 86% response at 100 μM; IC50 [3]: 109 µM
COc1ccc(C(=O)N2CN(CC3CCCO3)Cc3c2sc(C)c3C)cc1 (stereo not drawn)										IC50 [1]: 6 µM; % response at 100 μM, Glu N2B [2]: 92% response at 100 μM; IC50 [3]: 35 µM
Cc1sc2ncn(CC(=O)N3CCCC3)c(=O)c2c1-c1ccc(Br)cc1 [4-Br—Ph / Me]	60	449	11.3	163	79	400				
O=C(Cn1cnc2scc(-c3ccc(Cl)cc3)c2c1=O)N1CCCC1 [4-Cl—Ph / H]	76	770	46	314	72	512				
Cc1sc2ncn(CC(=O)N3CCCC3)c(=O)c2c1-c1ccc(Cl)cc1 [4-Cl—Ph / Me]	15	347	11	223	23	381				
CCc1ccc(-c2csc3ncn(CC(=O)N4CCCC4)c(=O)c23)cc1 [4-Et—Ph / H]	66	417	39	223	58	355				
Cc1sc2ncn(CC(=O)N3CCCC3)c(=O)c2c1-c1ccc(F)cc1 [4-F—Ph / Me]	81	448	54	213	124	428				
O=C(Cn1cnc2scc(-c3ccc(I)cc3)c2c1=O)N1CCCC1 [4-I—Ph / H]	89	369	75	262	45	206	110 ± 2.1	121 ± 5.7	101 ± 1.8	
CSc1ccc(-c2csc3ncn(CC(=O)N4CCCC4)c(=O)c23)cc1 [4-MeS—Ph / H]							99 ± 2.5	102 ± 4.6	96 ± 2.6	
Cc1ccc(-c2csc3ncn(CC(=O)N4CCCC4)c(=O)c23)cc1 [4-Me—Ph / H]	207	597	109	226	170	560				
[N-]=[N+]=Nc1ccc(-c2csc3ncn(CC(=O)N4CCCC4)c(=O)c23)cc1 [4-N3—Ph / H]	102	918	88	353	134	730	166 ± 7.2	134 ± 6.7	147 ± 6.3	
Cc1sc2ncn(CC(=O)N3CCCC3)c(=O)c2c1-c1ccc(N=[N+]=[N-])cc1 [4-N3—Ph / Me]	54	485	54	304	50	426	146 ± 6.4	135 ± 5.5	128 ± 2.6	
Cc1sc2ncn(CC(=O)N3CCCC3)c(=O)c2c1-c1ccc(N)cc1 [4-NH2—Ph / Me]							116 ± 4.5	104 ± 1.7	103 ± 2.2	
CCOc1ccc(-c2c(C)sc3ncn(CC(=O)N4CCCC4)c(=O)c23)cc1 [4-OEt—Ph / Me]	18	186	15	147	18	232				
Cc1sc2ncn(CC(=O)N3CCCC3)c(=O)c2c1-c1ccc(O)cc1 [4-OH—Ph / Me]							98 ± 2.3	82 ± 1.0	99 ± 2.5	
CC(C)c1ccc(-c2csc3ncn(CC(=O)N4CCCC4)c(=O)c23)cc1 [4-^iPr—Ph / H]			33	174			100 ± 2.5	121 ± 6.9	98 ± 1.4	
O=C(Cn1cnc2sc3c(c2c1=O)CCCC3)c1ccc([N+](=O)[O-])cc1 [Compound 4-NO2]							93 ± 2.0	94 ± 1.3	97 ± 1.1	
Cc1sc2ncn(CC(=O)N3CCCC3)c(=O)c2c1-c1cccc(I)c1 [Compound 1622-35]										effect on channel function and deactivation, excised outside-out patch ([6]; 30 μM 1622-35): increases in GluN1/GluN2 channel function and slows deactivation; Decay Time Constant, Fold Increase [6, 7]: 5.7 ± 1.9 fold; Peak Amplitude, Fold Increase [6, 7]: 3.4 ± 0.6 fold; Peak Amplitude (pA) ([6]; 1622-35 10 μM, 100 μM glutamate, 30 μM glycine, control 628 ± 237, N 4): 1694 ± 417 pA; Decay Time Constant ([6]; 1622-35 10 μM, 100 μM glutamate, 30 μM glycine, control 681 ± 142, N 4): 3037 ± 166 ms; prolonged deactivation of NMDA-Rs ([6]; rapid solution exchange electrophysiology): roughly 3 fold; effect on CA1 EPSPs during theta burst stimulation (hippocampal CA1 neurons): enhances the NMDA components of CA1 EPSPs; effect on sEPSCs in hippocampal pyramidal neurons (hippocampal CA1 neurons): potentiates only the NMDA component of the sEPSCs; total charge transfer of EPSCs (hippocampal CA1 neurons; 10 μM 1622-35): 2.3 times greater than control; time course of excitatory post synaptic currents (hippocampal CA1 neurons; 10 μM 1622-35, n=4, control 280±30 ms): 970 ± 220 ms
Cc1sc2ncn(CC(=O)N3CCCC3)c(=O)c2c1-c1ccccc1 [Ph / Me]	14	168	15	153	12	262	120 ± 3.7	115 ± 5.4	148 ± 9.1	
C#CCn1cnc2sc(C)c(-c3cccc(Cl)c3)c2c1=O [—C≡CH]							98 ± 7.9	116 ± 4.0	98 ± 4.3	
